Values joined by “and” are separate entries in the source; they are usually repeats but may differ in a detail not shown here. Equal values may be shown once. Inconclusive results and toxic doses are left out. The calls were made as follows: active = survival T/C of 150% or more; inactive = T/C below 125% in these data.
Test system: P388 leukemia ip, CD2F1 mice, survival T/C
Assay: NCI In Vivo Anticancer Drug Screen. Data for tumor model P388 Leukemia (intraperitoneal) in CD2F1 (CDF1) mice
Settings: endpoint: median survival time, higher = longer survival
Outline: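 Mice carrying the transplanted tumor received test compound or vehicle. Survival was recorded in each group, and the value is the treated-group measurement divided by that of the vehicle-treated control group.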

[1] = dose: 50.0 mg/kg/injection, schedule: Q01DX009 (ip), vehicle: saline with Tween-80
[2] = dose: 100.0 mg/kg/injection, schedule: Q01DX009 (ip), vehicle: saline with Tween-80
[3] = dose: 200.0 mg/kg/injection, schedule: Q01DX009 (ip), vehicle: saline with Tween-80
[4] = dose: 200.0 mg/kg/injection, schedule: Q01DX009 (ip), vehicle: other
[5] = dose: 400.0 mg/kg/injection, schedule: Q01DX009 (ip), vehicle: other
[6] = dose: 60.0 mg/kg/injection, schedule: Q01DX005 (ip), vehicle: saline with Tween-80
[7] = dose: 120.0 mg/kg/injection, schedule: Q01DX005 (ip), vehicle: saline with Tween-80
[8] = dose: 240.0 mg/kg/injection, schedule: Q01DX005 (ip), vehicle: saline with Tween-80
[9] = dose: 50.0 mg/kg/injection, schedule: Q01DX005 (ip), vehicle: saline with Tween-80
[10] = dose: 100.0 mg/kg/injection, schedule: Q01DX005 (ip), vehicle: saline with Tween-80
[11] = dose: 200.0 mg/kg/injection, schedule: Q01DX005 (ip), vehicle: saline with Tween-80
[12] = dose: 50.0 mg/kg/injection, schedule: Q01DX005 (ip), vehicle: Klucel (hydroxypropylcellulose) (HPC)
[13] = dose: 100.0 mg/kg/injection, schedule: Q01DX005 (ip), vehicle: Klucel (hydroxypropylcellulose) (HPC)

Measured: T/C

CSc1ncnc2c1ncn2C1OC(CO)C(O)C1O (centres undefined)
inactive: dose: 2.0 mg/kg/injection, schedule: Q01DX010 (ip), vehicle: saline 107 % of control | dose: 4.0 mg/kg/injection, schedule: Q01DX010 (ip), vehicle: saline 102 % of control and 104 % of control | dose: 8.0 mg/kg/injection, schedule: Q01DX010 (ip), vehicle: saline 100 % of control and 116 % of control | dose: 16.0 mg/kg/injection, schedule: Q01DX010 (ip), vehicle: saline 109 % of control and 120 % of control | dose: 25.0 mg/kg/injection, schedule: Q01DX009 (ip), vehicle: saline with Tween-80 95 % of control | [1] 93 % of control | dose: 54.0 mg/kg/injection, schedule: Q01DX001 (ip), vehicle: saline 111 % of control | dose: 82.0 mg/kg/injection, schedule: Q01DX001 (ip), vehicle: saline 117 % of control and 118 % of control | [2] 104 % of control | [3] 101 % of control

COc1ccc(CC(=O)Nc2ccc(OC)c(OC)c2)cc1OC
inactive: dose: 25.0 mg/kg/injection, schedule: Q01DX009 (ip), vehicle: other 92 % of control | dose: 50.0 mg/kg/injection, schedule: Q01DX009 (ip), vehicle: other 91 % of control | dose: 100.0 mg/kg/injection, schedule: Q01DX009 (ip), vehicle: other 95 % of control | [4] 87 % of control | [5] 92 % of control

O=P(OC1=CCCCC1)(c1ccccc1)c1ccccc1
inactive: [6] 99 % of control | [7] 100 % of control | [8] 97 % of control

O=C1CC2COc3ccccc3C2=NN1c1ccccc1 (centres undefined)
inactive: [6] 105 % of control | [7] 94 % of control | [8] 91 % of control

O=C(CSc1nc2ccccc2s1)NCCO
inactive: [9] 97 % of control | [10] 99 % of control | [11] 97 % of control

CCN(CCO)CCNc1ccc(C)c2sc3cc(Cl)ccc3c(=O)c12
inactive: dose: 12.5 mg/kg/injection, schedule: Q01DX005 (ip), vehicle: Klucel (hydroxypropylcellulose) (HPC) 104 % of control | dose: 25.0 mg/kg/injection, schedule: Q01DX005 (ip), vehicle: Klucel (hydroxypropylcellulose) (HPC) 104 % of control | [12] 101 % of control and 102 % of control | [13] 111 % of control

C/C=C(\C(=O)OC)C1CC2OC(=O)C1(C=O)C13CCNC21N(C)c1ccccc13 (centres undefined)
inactive: dose: 4.5 mg/kg/injection, schedule: Q01DX005 (ip), vehicle: saline + Tween-80 + alcohol 104 % of control | dose: 9.5 mg/kg/injection, schedule: Q01DX005 (ip), vehicle: saline + Tween-80 + alcohol 98 % of control | dose: 18.0 mg/kg/injection, schedule: Q01DX005 (ip), vehicle: saline + Tween-80 + alcohol 104 % of control | dose: 38.0 mg/kg/injection, schedule: Q01DX005 (ip), vehicle: saline + Tween-80 + alcohol 98 % of control

Cc1c(/C=C/C(=O)O)no[n+]1[O-]
inactive: [9] 102 % of control | [10] 98 % of control | [11] 100 % of control

Cc1[nH]c(=O)[nH]c(=O)c1/C=C/C(=O)NC(CO)CS(=O)Cc1ccccc1 (centres undefined)
inactive: dose: 0.07 mg/kg/injection, schedule: Q01DX009 (ip), vehicle: water 100 % of control | dose: 0.15 mg/kg/injection, schedule: Q01DX009 (ip), vehicle: water 102 % of control | dose: 0.3 mg/kg/injection, schedule: Q01DX009 (ip), vehicle: water 100 % of control | dose: 0.6 mg/kg/injection, schedule: Q01DX009 (ip), vehicle: water 103 % of control | dose: 2.0 mg/kg/injection, schedule: Q01DX009 (ip), vehicle: other 114 % of control | dose: 4.0 mg/kg/injection, schedule: Q01DX009 (ip), vehicle: other 118 % of control | dose: 8.0 mg/kg/injection, schedule: Q01DX009 (ip), vehicle: other 122 % of control | dose: 16.0 mg/kg/injection, schedule: Q01DX009 (ip), vehicle: other 118 % of control | dose: 32.0 mg/kg/injection, schedule: Q01DX009 (ip), vehicle: other 99 % of control and 108 % of control | dose: 64.0 mg/kg/injection, schedule: Q01DX009 (ip), vehicle: other 103 % of control | dose: 128.0 mg/kg/injection, schedule: Q01DX009 (ip), vehicle: other 98 % of control | [4] 92 % of control | dose: 256.0 mg/kg/injection, schedule: Q01DX009 (ip), vehicle: other 100 % of control | dose: 300.0 mg/kg/injection, schedule: Q01DX009 (ip), vehicle: other 90 % of control | [5] 93 % of control

COc1cc(C(=O)N2C3C4CCC(C)(OC4(C)C)C32)cc(OC)c1OC (centres undefined)
inactive: [12] 95 % of control | [13] 97 % of control | dose: 200.0 mg/kg/injection, schedule: Q01DX005 (ip), vehicle: Klucel (hydroxypropylcellulose) (HPC) 94 % of control

C[n+]1c(-c2ccc(/C=N/NC(=O)c3cc(O)c(C(=O)N/N=C/c4ccc(-c5cn6ccccc6[n+]5C)cc4)cc3O)cc2)cn2ccccc21
inactive: [6] 105 % of control | [7] 105 % of control

Oc1ccccc1C1=CC=NCCN1
inactive: dose: 15.0 mg/kg/injection, schedule: Q01DX005 (ip), vehicle: saline with Tween-80 96 % of control | dose: 30.0 mg/kg/injection, schedule: Q01DX005 (ip), vehicle: saline with Tween-80 101 % of control | [6] 101 % of control

CCCCC(=O)N/N=C/c1ccc([N+](=O)[O-])s1
inactive: [1] 95 % of control | [2] 99 % of control | [3] 101 % of control

O=C(N/N=C/c1ccccc1[O-])c1ccccc1O.O=C(N/N=C/c1ccccc1[O-])c1ccccc1O.[Fe+2]
inactive: dose: 60.0 mg/kg/injection, schedule: Q01DX005 (ip), vehicle: Klucel (hydroxypropylcellulose) (HPC) 103 % of control | dose: 120.0 mg/kg/injection, schedule: Q01DX005 (ip), vehicle: Klucel (hydroxypropylcellulose) (HPC) 108 % of control | dose: 240.0 mg/kg/injection, schedule: Q01DX005 (ip), vehicle: Klucel (hydroxypropylcellulose) (HPC) 94 % of control

CN(O)C(=O)CCCCCCCCC(=O)N(C)O
inactive: [6] 103 % of control | [7] 105 % of control | [8] 114 % of control

COc1cc2oc(=O)cc(C)c2cc1N
inactive: dose: 50.0 mg/kg/injection, schedule: Q04DX002 (ip), vehicle: suspension in saline 109 % of control | dose: 100.0 mg/kg/injection, schedule: Q04DX002 (ip), vehicle: suspension in saline 99 % of control | dose: 200.0 mg/kg/injection, schedule: Q04DX002 (ip), vehicle: suspension in saline 106 % of control

Cc1ccc(S(=O)(=O)CC(=O)c2ccccc2)cc1
inactive: dose: 100.0 mg/kg/injection, schedule: Q01DX009 (ip), vehicle: Klucel (hydroxypropylcellulose) (HPC) 108 % of control | dose: 200.0 mg/kg/injection, schedule: Q01DX009 (ip), vehicle: Klucel (hydroxypropylcellulose) (HPC) 108 % of control | dose: 400.0 mg/kg/injection, schedule: Q01DX009 (ip), vehicle: Klucel (hydroxypropylcellulose) (HPC) 104 % of control

COc1c(C)cc([N+](=O)[O-])c(C)c1[N+](=O)[O-]
inactive: dose: 50.0 mg/kg/injection, schedule: Q01DX001 (ip), vehicle: Klucel (hydroxypropylcellulose) (HPC) 92 % of control | dose: 100.0 mg/kg/injection, schedule: Q01DX001 (ip), vehicle: Klucel (hydroxypropylcellulose) (HPC) 93 % of control | dose: 200.0 mg/kg/injection, schedule: Q01DX001 (ip), vehicle: Klucel (hydroxypropylcellulose) (HPC) 90 % of control

CC(=O)Nc1ccc(O)c(O)c1
inactive: [1] 116 % of control and 119 % of control | [2] 120 % of control | [3] 119 % of control

From PubChem BioAssay AID330 (DTP/NCI, 2004)
